Results published in the NIST ThermoML archive (doi:10.1021/je049932z).

Columns and labels:
[1] = 293.15 K
[2] = wn = mass fraction of the nth substance listed; conditions: 293.15 K; for mass density / viscosity: 101.3 kPa, Liquid

CCOCCOCCOCC [diethylene glycol diethyl ether]
Conditions | surface tension liquid-gas [mN/m]
[1] | 29.27

[1], 101.3 kPa, Liquid
Conditions | mass density [kg/m3] | viscosity [mPa·s]
– | 907.3 | 1.346

CCOCCOCCOCC [diethylene glycol diethyl ether] + O
[2]
Conditions | mass density [kg/m3] | surface tension liquid-gas [mN/m] | viscosity [mPa·s]
w1 = 0.0033 | – | 69.73 | –
w1 = 0.00984 | – | 66.53 | –
w1 = 0.01771 | – | 56.82 | –
w1 = 0.03207 | – | 45.57 | –
w1 = 0.05896 | 996.7 | 36.39 | 1.18
w1 = 0.07683 | 996.9 | – | 1.265
w1 = 0.1038 | 997.1 | – | 1.451
w1 = 0.1227 | 997.2 | – | 1.551
w1 = 0.1425 | 998.2 | – | 1.701
w1 = 0.1611 | 998.5 | 35.71 | 1.839
w1 = 0.1951 | 998.6 | – | 2.149
w1 = 0.2207 | 999.3 | – | 2.414
w1 = 0.2547 | 999.1 | 34.92 | 2.707
w1 = 0.2828 | 999.8 | – | 2.961
w1 = 0.3185 | 999.5 | – | 3.302
w1 = 0.3578 | 999.1 | 34.11 | 3.637
w1 = 0.3773 | 996.6 | – | 3.781
w1 = 0.4231 | 994.6 | – | 4.088
w1 = 0.4474 | 993.1 | 32.3 | 4.218
w1 = 0.5151 | 989 | – | 4.462
w1 = 0.5769 | 981.1 | 30.54 | 4.452
w1 = 0.6029 | 979.1 | – | 4.403
w1 = 0.6385 | 973.1 | 30.21 | 4.27
w1 = 0.6814 | 966.4 | – | 4.033
w1 = 0.7256 | 960.1 | – | 3.741
w1 = 0.7794 | 949.6 | 30.46 | 3.189
w1 = 0.8549 | 940.7 | 30.2 | 2.599
w1 = 0.9195 | 926.2 | – | 1.943
w1 = 0.9401 | 920.7 | 30.01 | 1.75
w1 = 0.9769 | 912.8 | – | 1.467
w1 = 1 | 907.3 | 29.27 | 1.346

O [water] + CCOCCOCCOCC
[2], w2 = 0
Conditions | mass density [kg/m3] | surface tension liquid-gas [mN/m] | viscosity [mPa·s]
– | 997.2 | 72.75 | 1.002

O [water]
Conditions | surface tension liquid-gas [mN/m]
[1] | 72.75

Conditions | viscosity [mPa·s]
[1], 101.3 kPa, Liquid | 1.002
